According to PubChem BioAssay AID248 (DTP/NCI, 2004):
Several values for one entry are separate records, joined by “and”; a condition that tells them apart may be missing. Equal values may be shown once. Toxic doses and inconclusive results are not listed. Rule as the data show it: active = T/C of 150% or more; inactive = T/C below 125%.

Test system: L1210 leukemia ip in BDF1 mice, survival T/C
Test: NCI In Vivo Anticancer Drug Screen. Data for tumor model L1210 Leukemia (intraperitoneal) in B6D2F1 (BDF1) mice
Settings: endpoint: mean survival time, higher = longer survival
Method in brief: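 Read-out is survival time, reported as the treated-group measurement over the vehicle-control measurement.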

[1] = dose: 100.0 mg/kg/injection, schedule: Q01DX001 (ip), vehicle: saline
[2] = dose: 100.0 mg/kg/injection, schedule: Q01DX009 (ip), vehicle: saline
[3] = dose: 200.0 mg/kg/injection, schedule: Q01DX001 (ip), vehicle: saline
[4] = dose: 200.0 mg/kg/injection, schedule: Q01DX009 (ip), vehicle: saline
[5] = dose: 400.0 mg/kg/injection, schedule: Q01DX001 (ip), vehicle: saline
[6] = dose: 400.0 mg/kg/injection, schedule: Q01DX009 (ip), vehicle: saline
[7] = dose: 100.0 mg/kg/injection, schedule: Q04DX003 (ip), vehicle: Klucel (hydroxypropylcellulose) (HPC)
[8] = dose: 200.0 mg/kg/injection, schedule: Q04DX003 (ip), vehicle: Klucel (hydroxypropylcellulose) (HPC)
[9] = dose: 400.0 mg/kg/injection, schedule: Q04DX003 (ip), vehicle: Klucel (hydroxypropylcellulose) (HPC)
[10] = dose: 100.0 mg/kg/injection, schedule: Q01DX009 (ip), vehicle: Klucel (hydroxypropylcellulose) (HPC)
[11] = dose: 200.0 mg/kg/injection, schedule: Q01DX009 (ip), vehicle: Klucel (hydroxypropylcellulose) (HPC)
[12] = dose: 400.0 mg/kg/injection, schedule: Q01DX009 (ip), vehicle: Klucel (hydroxypropylcellulose) (HPC)
[13] = dose: 50.0 mg/kg/injection, schedule: Q01DX009 (ip), vehicle: saline
[14] = dose: 25.0 mg/kg/injection, schedule: Q01DX009 (ip), vehicle: saline with Tween-80
[15] = dose: 100.0 mg/kg/injection, schedule: Q04DX003 (ip), vehicle: saline with Tween-80
[16] = dose: 200.0 mg/kg/injection, schedule: Q04DX003 (ip), vehicle: saline with Tween-80
[17] = dose: 75.0 mg/kg/injection, schedule: Q01DX001 (ip), vehicle: saline
[18] = dose: 400.0 mg/kg/injection, schedule: Q04DX003 (ip), vehicle: saline with Tween-80
[19] = dose: 200.0 mg/kg/injection, schedule: Q04DX002 (ip), vehicle: saline with Tween-80
[20] = dose: 100.0 mg/kg/injection, schedule: Q01DX001 (ip), vehicle: saline with Tween-80
[21] = dose: 200.0 mg/kg/injection, schedule: Q01DX001 (ip), vehicle: saline with Tween-80
[22] = dose: 400.0 mg/kg/injection, schedule: Q01DX001 (ip), vehicle: saline with Tween-80

Measured: T/C

O=[N+]([O-])c1cc(/C=N/NC(=S)NC23CC4CC(CC(C4)C2)C3)ccc1Cl
inactive: dose: 75.0 mg/kg/injection, schedule: Q01DX001 (ip), vehicle: other 97 % of control | dose: 150.0 mg/kg/injection, schedule: Q01DX001 (ip), vehicle: other 89 % of control | dose: 300.0 mg/kg/injection, schedule: Q01DX001 (ip), vehicle: other 91 % of control

Cc1ccc(S(=O)(=O)N2CCC(Br)C(=O)c3ccccc32)cc1 (centres undefined)
inactive: [1] 94 % of control | [2] 107 % of control | [3] 107 % of control | [4] 109 % of control | [5] 100 % of control | [6] 97 % of control

CCOC(=O)C(C)Oc1ccc([N+](=O)[O-])cc1[N+](=O)[O-] (centres undefined)
inactive: [7] 95 % of control | [8] 90 % of control | [9] 98 % of control

NNC(=O)c1ccccc1Nc1ccc(Br)cc1
inactive: [10] 94 % of control | [7] 94 % of control | [11] 93 % of control | [8] 94 % of control | [12] 86 % of control | [9] 96 % of control

CCCCC/C=N\NC(N)=S
inactive: dose: 100.0 mg/kg/injection, schedule: Q01DX001 (ip), vehicle: carboxymethylcellulose (CMC) 96 % of control

O=C(O)c1cc(C(=O)Nc2ccc(C3=NCCN3)cc2)c(C(=O)O)cc1C(=O)Nc1ccc(C2=NCCN2)cc1
inactive: dose: 15.0 mg/kg/injection, schedule: Q01DX Z (ip), vehicle: carboxymethylcellulose (CMC) 95 % of control | dose: 30.0 mg/kg/injection, schedule: Q01DX Z (ip), vehicle: carboxymethylcellulose (CMC) 98 % of control | dose: 60.0 mg/kg/injection, schedule: Q01DX Z (ip), vehicle: carboxymethylcellulose (CMC) 101 % of control | dose: 120.0 mg/kg/injection, schedule: Q01DX Z (ip), vehicle: carboxymethylcellulose (CMC) 95 % of control

CCOC(=O)CNc1cc(N)ncn1
inactive: [13] 105 % of control | [2] 112 % of control

O=C1NC(=O)C2(CCN(CC3COc4ccccc4O3)CC2)C(=O)N1 (centres undefined)
inactive: [7] 97 % of control | [8] 103 % of control | [9] 109 % of control

CC(=O)Nc1ccc2c(c1)Cc1cc(Cl)ccc1-2
inactive: dose: 50.0 mg/kg/injection, schedule: Q01DX001 (ip), vehicle: saline 105 % of control | [1] 100 % of control | [3] 103 % of control | [5] 105 % of control

CC(=O)N(C)c1cc(N)ccc1OCc1ccccc1
inactive: dose: 12.5 mg/kg/injection, schedule: Q04DX003 (ip), vehicle: saline with Tween-80 91 % of control | [14] 100 % of control | dose: 25.0 mg/kg/injection, schedule: Q04DX003 (ip), vehicle: saline with Tween-80 98 % of control and 101 % of control | dose: 50.0 mg/kg/injection, schedule: Q01DX009 (ip), vehicle: saline with Tween-80 96 % of control | dose: 50.0 mg/kg/injection, schedule: Q04DX003 (ip), vehicle: saline with Tween-80 95 % of control and 102 % of control | dose: 100.0 mg/kg/injection, schedule: Q01DX009 (ip), vehicle: saline with Tween-80 102 % of control | [15] 95 % of control and 113 % of control | [16] 97 % of control

CCOC(=O)CCN(C)C
inactive: [2] 104 % of control | [4] 101 % of control | [6] 98 % of control

CN=C(NC)N(C)/N=C/C(C)=N/N(C)C(=NC)NC
inactive: dose: 15.0 mg/kg/injection, schedule: Q01DX Z (ip), vehicle: methylcellulose (MC) 95 % of control | dose: 30.0 mg/kg/injection, schedule: Q01DX Z (ip), vehicle: methylcellulose (MC) 101 % of control | dose: 60.0 mg/kg/injection, schedule: Q01DX Z (ip), vehicle: methylcellulose (MC) 101 % of control | dose: 60.0 mg/kg/injection, schedule: Q01DX Z (oral), vehicle: methylcellulose (MC) 104 % of control | dose: 120.0 mg/kg/injection, schedule: Q01DX Z (oral), vehicle: methylcellulose (MC) 93 % of control | dose: 240.0 mg/kg/injection, schedule: Q01DX Z (oral), vehicle: methylcellulose (MC) 91 % of control | dose: 480.0 mg/kg/injection, schedule: Q01DX Z (oral), vehicle: methylcellulose (MC) 110 % of control | dose: 720.0 mg/kg/injection, schedule: Q01DX Z (oral), vehicle: methylcellulose (MC) 108 % of control

CCc1cccc(CC)c1NC(=O)Nc1ccccc1F
inactive: dose: 100.0 mg/kg/injection, schedule: Q01DX009 (ip), vehicle: other 91 % of control | dose: 200.0 mg/kg/injection, schedule: Q01DX009 (ip), vehicle: other 102 % of control | dose: 400.0 mg/kg/injection, schedule: Q01DX009 (ip), vehicle: other 105 % of control

c1ccc(COc2ccccn2)cc1
inactive: dose: 50.0 mg/kg/injection, schedule: Q01DX009 (ip), vehicle: Klucel (hydroxypropylcellulose) (HPC) 95 % of control | [10] 97 % of control | [7] 98 % of control | [8] 98 % of control

CCCC[n+]1cccc(C(=O)c2ccccc2)c1
inactive: [17] 101 % of control

NC(CSS(=O)(=O)O)=NCc1cccs1
inactive: dose: 12.5 mg/kg/injection, schedule: Q01DX009 (ip), vehicle: saline with Tween-80 103 % of control | [14] 96 % of control

O=C1/C(=C/c2cccc([N+](=O)[O-])c2)CCc2ccccc21
inactive: dose: 100.0 mg/kg/injection, schedule: Q04DX003 (ip), vehicle: acetone 109 % of control | dose: 200.0 mg/kg/injection, schedule: Q04DX003 (ip), vehicle: acetone 101 % of control | dose: 400.0 mg/kg/injection, schedule: Q04DX003 (ip), vehicle: acetone 96 % of control

CCCCCCC(C)C(COC(=O)c1ccc([N+](=O)[O-])cc1)NCC (centres undefined)
inactive: [17] 93 % of control | dose: 150.0 mg/kg/injection, schedule: Q01DX001 (ip), vehicle: saline 96 % of control

COc1cc(C)c(O)c(C)c1C
inactive: [15] 95 % of control | [16] 95 % of control | [18] 95 % of control

NCc1ccc[n+]([O-])c1
inactive: dose: 12.5 mg/kg/injection, schedule: Q04DX002 (ip), vehicle: saline with Tween-80 97 % of control | dose: 25.0 mg/kg/injection, schedule: Q04DX002 (ip), vehicle: saline with Tween-80 105 % of control | dose: 50.0 mg/kg/injection, schedule: Q04DX002 (ip), vehicle: saline with Tween-80 102 % of control and 118 % of control | [19] 89 % of control

CC(=O)c1ccc(SC(=O)N(C)C)cc1
inactive: [15] 98 % of control | [16] 93 % of control | [18] 97 % of control

C=[CH][Sn]([c]1ccccc1)([c]1ccccc1)[c]1ccccc1
inactive: [13] 92 % of control and 104 % of control and 109 % of control | [2] 106 % of control and 114 % of control and 89 % of control | [4] 96 % of control and 101 % of control (2×)

O=C(O)C1C2CCC1C(O)C2 (centres undefined)
inactive: [20] 107 % of control | [21] 94 % of control | [22] 97 % of control

O=C1c2ccccc2C(=O)N1N1C(=O)C2C3CCC(O3)C2C1=O (centres undefined)
inactive: [20] 97 % of control and 91 % of control | dose: 100.0 mg/kg/injection, schedule: Q04DX002 (ip), vehicle: saline with Tween-80 101 % of control and 106 % of control | [15] 93 % of control and 95 % of control | [21] 94 % of control and 90 % of control | [19] 105 % of control | [16] 95 % of control and 100 % of control | [22] 96 % of control and 97 % of control | dose: 400.0 mg/kg/injection, schedule: Q04DX002 (ip), vehicle: saline with Tween-80 94 % of control and 101 % of control | [18] 95 % of control and 100 % of control

CCc1c(N)nc(N)nc1Nc1ccc(C)cc1
inactive: dose: 6.0 mg/kg/injection, schedule: Q01DX Z (ip), vehicle: methylcellulose (MC) 95 % of control | dose: 12.0 mg/kg/injection, schedule: Q01DX Z (ip), vehicle: methylcellulose (MC) 97 % of control

COc1cc(OC)c(NC(=O)NC(C)(C)C)cc1Cl
inactive: [10] 93 % of control | [11] 95 % of control | [12] 98 % of control

COc1ccc(C(=O)NCc2cccs2)cc1
inactive: dose: 100.0 mg/kg/injection, schedule: Q04DX002 (ip), vehicle: Klucel (hydroxypropylcellulose) (HPC) 91 % of control | dose: 200.0 mg/kg/injection, schedule: Q04DX002 (ip), vehicle: Klucel (hydroxypropylcellulose) (HPC) 102 % of control | dose: 400.0 mg/kg/injection, schedule: Q04DX002 (ip), vehicle: Klucel (hydroxypropylcellulose) (HPC) 97 % of control
